This note sets out measurements from patent publication US11261201B2 (priority 2018, dated 2022).

≈ marks a conversion by molar mass, not a printed value. Structures can show the parent of a compound that is named as a salt. Where two headings read alike, the source gives them in different places. A value given as a limit tells only on which side of the number the result lay.

One experiment relates to E. coli. As to the kind of experiment: Gram negative MIC protocol (OD600, LB, 24 h). Particulars: Escherichia coli.
The subject of the next experiment is A. baumannii. As to the kind of experiment: Gram negative MIC protocol (OD600, LB, 24 h). Particulars: Acinetobacter baumannii.
A further experiment deals with H37RvMA. Put plainly: Tuberculosis Alamar Blue/Resazurin assay (MIC). Particulars: Mycobacterium tuberculosis, H37RV, read-out: WT H37Rv MTB Activity. It is filed as cell-based. In general terms: Alamar Blue is a resazurin reagent that responds to reducing activity.
The mark [1] stands for this setting: read-out: MIC E. coli delta-TolC LB Media, E. coli delta-TolC, LB media, OD600.
Setting [2] is: read-out: MIC WT E. coli LB Media, WT E. coli, LB media, OD600.
Setting [3] is: read-out: MIC A. baumannii LB Media, A. baumannii, LB media, 24 h, OD600.
Where [4] appears, read: read-out: MIC E. coli delta-TolC LB Media, E. coli delta-TolC strain, LB media, 24 h, OD600.
[5] abbreviates: read-out: MIC WT E. coli LB Media, wild-type E. coli, LB media, 24 h, OD600.
Setting [6] is: read-out: MIC A. baumannii LB Media.

Method for A. baumannii: (§1) Overnight bacterial cultures were grown in LB with no added antibiotics at 37° C. with shaking. A 1:1000 dilution of these cultures into LB was exposed to concentration gradients of compounds in 96-well plates (100 μL per well assay volume). Resulting plates were incubated at 37° C. for 24 h without shaking, and OD600 was measured at the end of the incubation. MICs were determined as the lowest concentrations at which OD600 remained at baseline.
Method for E. coli: as §1

Take `CC(CC1CCCCC1)NCc1ccccc1SCC1CN(C)C(=O)O1` (stereo not drawn) [B407, 5-(((2-(((1-cyclohexylpropan-2-yl)amino)methyl)phenyl)thio)methyl)-3-methyl oxazolidin-2-one]: the MIC in the experiment with E. coli (setting [1]) is 7 µM (≈ 2.64 µg/mL); in the experiment on E. coli (setting [2]), 150 µM (≈ 56.5 µg/mL); with A. baumannii (setting [3]) it was more than 150 µM; with H37RvMA (WT H37Rv MTB) it was more than 150 µM.

With `CC(CC1CCCCC1)NCc1ccccc1CS(=O)(=O)N1CCN(C)CC1` (stereo not drawn) [B439, 1-cyclohexyl-N-(2-(((4-methylpiperazin-1-yl)sulfonyl)methyl)benzyl)propan-2-amine], the MIC is 12 µM (≈ 4.89 µg/mL) with E. coli (setting [1]), 91 µM (≈ 37.1 µg/mL) in the experiment on E. coli (setting [2]), 150 µM (≈ 61.1 µg/mL) with A. baumannii (setting [3]) and more than 150 µM in the experiment on H37RvMA (WT H37Rv MTB).

`c1ccc(CNCCC2CCOC2)cc1` (stereo not drawn) [B40]: the MIC in the experiment on E. coli (setting [1]), in the experiment with E. coli (setting [2]), in the experiment with A. baumannii (setting [3]) and in the experiment on H37RvMA (WT H37Rv MTB) was more than 150 µM throughout.

In the case of `COc1ccc(CC(C)NCc2ccccc2)c2ccccc12` (stereo not drawn) [B201], the MIC in the experiment with E. coli (setting [4]) was 96 µM (≈ 29.3 µg/mL); with E. coli (setting [5]), more than 300 µM; in the experiment with A. baumannii (setting [3]), 170 µM (≈ 51.9 µg/mL); in the experiment with H37RvMA, 91 µM (≈ 27.8 µg/mL).

Regarding `CC(CC1CCCCC1)NCc1ccccc1OCC(N)=O` (stereo not drawn) [B338], the MIC with E. coli (setting [4]) was 12 µM (≈ 3.65 µg/mL); in the experiment on E. coli (setting [5]), 91 µM (≈ 27.7 µg/mL); with A. baumannii (setting [3]) it was more than 150 µM; in the experiment with H37RvMA (WT H37Rv MTB), more than 150 µM.

As to `C1=CCC(CCNCc2ccccc2)CC1` (stereo not drawn) [B156, N-benzyl-2-(cyclohex-3-enyl)ethanamine hydrochloride], the MIC with E. coli (setting [1]) is 150 µM; in the experiment with E. coli (setting [2]) it was 150 µM; with A. baumannii (setting [6]), 150 µM; in the experiment on H37RvMA, more than 150 µM.

Regarding `O=C1Cc2ccccc2CN1CCC1=CCCCC1` [B411, 2-(2-(cyclohex-1-en-1-yl)ethyl)-1,4-dihydroisoquinolin-3(2H)-one], the MIC in the experiment on E. coli (setting [1]) is 150 µM (≈ 38.3 µg/mL); with E. coli (setting [2]) it was more than 150 µM; in the experiment with A. baumannii (setting [3]), more than 150 µM; with H37RvMA (WT H37Rv MTB), 7.4 µM (≈ 1.89 µg/mL).

In the case of `C1=Nc2cccc(CCNCc3ccccc3)c2C1` [B57], the MIC in the experiment on E. coli (setting [1]), in the experiment with E. coli (setting [2]), with A. baumannii (setting [6]) and in the experiment on H37RvMA was more than 150 µM in each case.

On to `CC(CC1CCC1)NCc1ccccc1` (stereo not drawn) [B33], for which the MIC in the experiment with E. coli (setting [1]), in the experiment with E. coli (setting [2]), with A. baumannii (setting [6]) and in the experiment on H37RvMA was more than 150 µM throughout.

In the case of `CC(CNCc1ccccc1)N1CCc2ccccc2C1` (stereo not drawn) [B130], the MIC in the experiment on E. coli (setting [1]), with E. coli (setting [2]), in the experiment on A. baumannii (setting [3]) and with H37RvMA (WT H37Rv MTB) was more than 150 µM in each case.

Take `COC(=O)c1ccoc1COc1ccccc1CNC(C)CC1CCCCC1` (stereo not drawn) [B267]: the MIC in the experiment with E. coli (setting [4]) is 7 µM (≈ 2.7 µg/mL); with E. coli (setting [5]) it was more than 150 µM; in the experiment with A. baumannii (setting [3]) it was more than 150 µM; in the experiment with H37RvMA (WT H37Rv MTB), 91 µM (≈ 35.1 µg/mL).

Consider `CC(CC1CCCCC1)NCc1ccccc1OCC(=O)N(C)Cc1ccco1` (stereo not drawn) [B318], for which the MIC in the experiment with E. coli (setting [4]) was 7 µM (≈ 2.79 µg/mL); in the experiment with E. coli (setting [5]) it was more than 150 µM; in the experiment on A. baumannii (setting [3]) it was more than 150 µM; in the experiment with H37RvMA (WT H37Rv MTB), 150 µM (≈ 59.8 µg/mL).

On to `CC(CNCc1ccccc1)C1CCCC1` (stereo not drawn) [B5], for which the MIC in the experiment with E. coli (setting [1]), in the experiment with E. coli (setting [2]), in the experiment with A. baumannii (setting [3]) and in the experiment on H37RvMA (WT H37Rv MTB) was more than 150 µM each time.

With `CC(CC1CCCCC1)NCc1ccccc1OCC1CCOCC1` (stereo not drawn) [B281], the MIC in the experiment with E. coli (setting [4]) was 4 µM (≈ 1.38 µg/mL); in the experiment on E. coli (setting [5]), more than 150 µM; in the experiment with A. baumannii (setting [3]), 91 µM (≈ 31.4 µg/mL); in the experiment on H37RvMA (WT H37Rv MTB), 91 µM (≈ 31.4 µg/mL).

For the compound `CS(=O)(=O)Cc1ccccc1CNCCC1CCCCC1` [B346], the MIC with E. coli (setting [4]) was 4 µM (≈ 1.24 µg/mL); with E. coli (setting [5]), more than 150 µM; in the experiment on A. baumannii (setting [3]), 12 µM (≈ 3.71 µg/mL); in the experiment on H37RvMA (WT H37Rv MTB), more than 150 µM.

Take `c1ccc(CNCCc2ccc3ccccc3n2)cc1` [B155]: the MIC with E. coli (setting [1]), in the experiment with E. coli (setting [2]), in the experiment with A. baumannii (setting [3]) and in the experiment with H37RvMA (WT H37Rv MTB) was more than 150 µM throughout.

Take `Cc1ccccc1COc1ccccc1CNC(C)CC1CCCCC1` (stereo not drawn) [B384]: the MIC amounted to 4 µM (≈ 1.41 µg/mL) in the experiment on E. coli (setting [4]), 91 µM (≈ 32 µg/mL) with E. coli (setting [5]), 55 µM (≈ 19.3 µg/mL) in the experiment on A. baumannii (setting [3]) and 20.2 µM (≈ 7.1 µg/mL) in the experiment with H37RvMA (WT H37Rv MTB).

As to `Cc1nnc(COc2ccccc2CNC(C)CC2CCCCC2)o1` (stereo not drawn) [B279], the MIC in the experiment with E. coli (setting [4]) is 12 µM (≈ 4.12 µg/mL); with E. coli (setting [5]), more than 150 µM; with A. baumannii (setting [3]), more than 150 µM; with H37RvMA (WT H37Rv MTB), more than 150 µM.

As to `c1ccc(CNCCN2CCCC3CCCC32)cc1` (stereo not drawn) [B126], the MIC in the experiment with E. coli (setting [1]), in the experiment with E. coli (setting [2]), in the experiment with A. baumannii (setting [3]) and with H37RvMA (WT H37Rv MTB) was more than 150 µM throughout.

For the compound `O=C(O)c1ccccc1CNCCC1CCCCC1` [B257, 2-((2-cyclohexylethylamino)methyl)benzoic acid hydrochloride], the MIC with E. coli (setting [4]) is 67 µM; in the experiment with E. coli (setting [5]), more than 150 µM; in the experiment with A. baumannii (setting [3]), more than 150 µM; in the experiment with H37RvMA (WT H37Rv MTB), more than 150 µM.

Regarding `CC(CC1CCOCC1)NCc1ccccc1` (stereo not drawn) [B29], the MIC in the experiment on E. coli (setting [1]), with E. coli (setting [2]), with A. baumannii (setting [3]) and with H37RvMA (WT H37Rv MTB) was more than 150 µM in each case.
